In data set [1] the test system is pTN24 dual-reporter splicing construct in 293T cells. The data set can be described thus: Dual-reporter cell-based splicing assay. To be noted: 5 hours treatment.
Data set [2] relates to JeKo-1 mantle cell lymphoma tumors. To be noted: JeKo-1 tumor-bearing mice, Supplemental Figure S2.
The conditions of data set [3]: NOD/SCID mice, 5-50 mg/kg daily for five days, IV and IP, day 5.
In data set [4] the test system is normal human foreskin fibroblasts (HFF). Briefly: cells. The following applies: Fibroblast, 72 h.
The test system of data set [5] is WiDr colorectal adenocarcinoma cells. The data set can be described thus: cells. To be noted: Homo sapiens, 72 h.
In data set [6] the test system is panel of human cancer cell lines. The following applies: read-out: IC50 in all cell lines tested; all tumor lines examined; cited from earlier work.
The conditions of data set [7]: cited from earlier work.
The test system of a further data set is several tumor cell lines. The following applies: cited from earlier work.

As to `CC(/C=C/[C@@H]1C[C@]2(CO2)CC(C)(C)O1)=C\C[C@H]1OC[C@@H](NC(=O)/C=C\[C@H](C)OC(=O)C(C)C)CO1` [compound 26, (S,Z)-5-((2R,5R)-2-((2E,4E)-5-((3R,5S)-7,7-dimethyl-1,6-dioxaspiro[2.5]octan-5-yl)-3-methylpenta-2,4-dienyl)-1,3-dioxan-5-ylamino)-5-oxopent-3-en-2-yl isobutyrate], in data set [1], the “effect on splicing (ratio of luciferase to β-galactosidase activity)” value is reported as “selectively inhibit splicing”. Also, the “in vivo anti-cancer activity” value in data set [2] is “robust anti-cancer activity that was comparable to compound 5”. Regarding `CC(/C=C/[C@@H]1C[C@]2(CO2)CC(C)(C)O1)=C\C[C@H]1CC[C@@H](NC(=O)/C=C\[C@H](C)O)CC1` [compound 4], in data set [1], the “effect on splicing (ratio of luciferase to β-galactosidase activity)” value is “altered splicing only very slightly at the highest concentration tested”. Broadly, the IC50 is the point on the concentration scale where inhibition reaches its midpoint. `CC(/C=C/[C@@H]1C[C@]2(CO2)CC(C)(C)O1)=C\C[C@H]1CC[C@@H](NC(=O)/C=C\[C@H](C)OC(=O)C(C)C)CC1` [compound 5, (S,Z)-5-((1R,4R)-4-((2E,4E)-5-((3R,5S)-7,7-dimethyl-1,6-dioxaspiro[2.5]octan-5-yl)-3-methylpenta-2,4-dienyl)cyclohexylamino)-5-oxopent-3-en-2-yl isobutyrate]: the “blood cell counts (CBC) versus vehicle-only mice” value in data set [3] is “No significant differences in blood cell counts”. This molecule registered an IC50 in data set [4] of more than 10 µM. As to `CC(=O)O[C@@H](C)/C=C\C(=O)N[C@H]1CC[C@@H](C/C=C(C)/C=C/[C@@H]2C[C@]3(CO3)CC(C)(C)O2)CC1` [compound 3a], the half-inhibitory concentration (IC50) in data set [5] is 2 µM; in data set [6], less than 5 µM. As for `CC[C@H](O)[C@@H](C)[C@H]1O[C@@H]1C[C@@](C)(O)/C=C/C=C(\C)[C@H]1OC(=O)C[C@H](O)CC[C@@](C)(O)[C@@H](OC(=O)N2CCN(C3CCCCCC3)CC2)/C=C/[C@@H]1C` [compound 2], the “activity relative to pladienolide B” value in data set [7] is “four-fold less active than pladienolide B”. `CC(=O)N[C@H]1CO[C@@H](C/C=C(C)/C=C/[C@@H]2C[C@]3(CO3)CC(C)(C)O2)OC1` [compound 27, N-((2s,5R)-2-((2E,4E)-5-((3R,5S)-7,7-dimethyl-1,6-dioxaspiro[2.5]octan-5-yl) -3-methylpenta-2,4-dienyl)-1,3-dioxan-5-yl)acetamide]: in data set [1], the “effect on splicing (ratio of luciferase to β-galactosidase activity)” value was “had no effect”.

On to `CC(=O)O[C@@H](C)/C=C\C(=O)N[C@@H]1C[C@H](C)[C@H](C/C=C(C)/C=C/[C@H]2O[C@](C)(O)C[C@@]3(CO3)[C@@H]2O)O[C@@H]1C` [compound 1], for which the “cytotoxicity IC50s” value in the data set with several tumor cell lines (several tumor cell lines) is “low nanomolar range”. The GI50s entry in the data set with several tumor cell lines (several tumor lines) was “single-digit nanomolar range”.

Source of the values: article PMC2801547 (Journal of medicinal chemistry, 2009).
